From patent US20150105252A1, “SUBSTITUTED PYRAZOLES AS HERBICIDES” (E I DU PONT DE NEMOURS AND COMPANY, priority 2013, published 2015)

Legend:
[1] = test system: morningglory; experiment: Test C postemergence; type: in vivo, Ipomoea coccinea
Method in brief: (§1)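 Pre- and postemergence greenhouse screen; vehicle was a non-phytotoxic solvent mix with surfactant. Preemergence: treatment applied right after sowing into loam and sand. Postemergence: treated at 1–4 leaves. Visual rating at 13–15 days, 100 = complete control.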

[2] = test system: galium; experiment: Test C postemergence; type: in vivo, Galium aparine
Method in brief: as §1

[3] = test system: soybean; experiment: Test C preemergence; type: in vivo, Glycine max; conditions: preemergence
Method in brief: as §1

[4] = test system: corn; experiment: Test A postemergence; type: in vivo, Zea mays
Method in brief: (§2)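 After sowing in a sand–loam mix, pots received compound preemergence by directed soil spray, or postemergence once plants reached the one- to two-leaf stage (2–10 cm). Formulation contained surfactant in a non-phytotoxic solvent. Injury was scored visually after ~10 greenhouse days, 0–100 scale.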

[5] = test system: corn; experiment: Test C preemergence; type: in vivo, Zea mays; conditions: preemergence
Method in brief: as §1

[6] = test system: wheat; experiment: Test C postemergence; type: in vivo, Triticum aestivum; conditions: postemergence
Method in brief: as §1

[7] = test system: foxtail, giant; experiment: Test A postemergence; type: in vivo, Setaria faberii
Method in brief: as §2

[8] = test system: galium; experiment: Test C preemergence; type: in vivo, Galium aparine; conditions: preemergence
Method in brief: as §1

[9] = test system: barnyardgrass; experiment: Test C postemergence; type: in vivo, Echinochloa crus-galli
Method in brief: as §1

[10] = test system: foxtail, giant; experiment: Test C preemergence; type: in vivo, Setaria faberii; conditions: preemergence
Method in brief: as §1

[11] = test system: kochia; experiment: Test C postemergence; type: in vivo, Kochia scoparia
Method in brief: as §1

[12] = test system: waterhemp; experiment: Test C preemergence; type: in vivo, Amaranthus rudis; conditions: preemergence
Method in brief: as §1

[13] = test system: foxtail, giant; experiment: Test C postemergence; type: in vivo, Setaria faberii
Method in brief: as §1

[14] = test system: velvetleaf; experiment: Test C postemergence; type: in vivo, Abutilon theophrasti; conditions: postemergence
Method in brief: as §1

[15] = test system: velvetleaf; experiment: Test A postemergence; type: in vivo, Abutilon theophrasti; conditions: Postemergence
Method in brief: as §2

[16] = test system: wheat; experiment: Test A postemergence; type: in vivo, Triticum aestivum; conditions: Postemergence
Method in brief: as §2

[17] = Postemergence, 31 g ai/ha, visually evaluated after 13 to 15 days
[18] = postemergence, 62 g ai/ha, scale 0 to 100
[19] = postemergence, 250 g ai/ha, scale 0 to 100 (0 no effect, 100 complete control)
[20] = postemergence, 125 g ai/ha, scale 0 to 100, 0 no effect, 100 complete control
[21] = 31 g ai/ha, visual rating, scale 0 to 100 (0 no effect, 100 complete control), 13 to 15 days
[22] = 62 g ai/ha, scale 0 to 100 (0 no effect, 100 complete control), 13 to 15 days
[23] = 125 g ai/ha, 13 to 15 days, scale 0 to 100, 0 = no effect, 100 = complete control
[24] = 250 g ai/ha, scale 0 to 100, 0 is no effect, 100 is complete control
[25] = Postemergence, 500 g ai/ha, 0 to 100 scale (0 no effect, 100 complete control)
[26] = postemergence, 125 g ai/ha, about 10 days, visual rating on 0 to 100 scale (0 no effect, 100 complete control)
[27] = 250 g ai/ha, scale 0 to 100 (0 no effect, 100 complete control)
[28] = 125 g ai/ha, 0 to 100 scale, 0 no effect, 100 complete control
[29] = 500 g ai/ha, 0 to 100 scale (0 no effect, 100 complete control)

## CCCNC(=O)c1cc(OCC)n(Cc2ccnc(C(F)(F)F)c2)n1 [Compound 187]
[1]; [17]
  Plant response rating (scale of 0 to 100 where 0 is no effect and 100 is complete control), Morningglory: 70
[1]; [18]
  Morningglory plant response rating: 85
[1]; [19]
  Plant response rating, Morningglory: 98
[1]; [20]
  Plant response rating, Morningglory: 80
[2]; [17]
  Plant response rating (scale of 0 to 100 where 0 is no effect and 100 is complete control), Galium: 60
[2]; [18]
  Galium plant response rating: 80
[2]; [19]
  Plant response rating, Galium: 90
[2]; [20]
  Plant response rating, Galium: 85
[3]; [21]
  Soybean plant response rating: 85
[3]; [22]
  Soybean plant response rating: 95
[3]; [23]
  Plant response rating, Soybean: 98
[3]; [24]
  Soybean plant response rating: 98
[4]; [25]
  Corn plant response rating: 100
[4]; [26]
  Corn plant response rating: 80
[5]; [21]
  Corn plant response rating: 20
[5]; [22]
  Corn plant response rating: 85
[5]; [23]
  Plant response rating, Corn: 95
[5]; [24]
  Corn plant response rating: 98
[6]; [27]
  Plant response rating, Wheat: 15
[6]; scale 0 to 100
  Wheat plant response rating: 10
[7]; [25]
  Foxtail, Giant plant response rating: 90
[7]; [26]
  Foxtail, Giant plant response rating: 90
[8]; [21]
  Galium plant response rating: 90
[8]; [22]
  Galium plant response rating: 95
[8]; [23]
  Plant response rating, Galium: 95
[8]; [24]
  Galium plant response rating: 98
[9]; [17]
  Plant response rating (scale of 0 to 100 where 0 is no effect and 100 is complete control), Barnyardgrass: 5
[9]; [18]
  Barnyardgrass plant response rating: 10
[9]; [19]
  Plant response rating, Barnyardgrass: 60
[9]; [20]
  Plant response rating, Barnyardgrass: 15
[10]; [21]
  Foxtail, Giant plant response rating: 100
[10]; [22]
  Foxtail, Giant plant response rating: 100
[10]; [23]
  Plant response rating, Foxtail, Giant: 100
[10]; [24]
  Foxtail, Giant plant response rating: 100
[11]; [17]
  Plant response rating (scale of 0 to 100 where 0 is no effect and 100 is complete control), Kochia: 85
[11]; [18]
  Kochia plant response rating: 90
[11]; [19]
  Plant response rating, Kochia: 90
[11]; [20]
  Plant response rating, Kochia: 90
[12]; [21]
  Waterhemp plant response rating: 100
[12]; [22]
  Waterhemp plant response rating: 100
[12]; [23]
  Plant response rating, Waterhemp: 100
[12]; [24]
  Waterhemp plant response rating: 100
[13]; [17]
  Plant response rating (scale of 0 to 100 where 0 is no effect and 100 is complete control), Foxtail, Giant: 5
[13]; [18]
  Foxtail, Giant plant response rating: 10
[13]; [19]
  Plant response rating, Foxtail, Giant: 70
[13]; [20]
  Plant response rating, Foxtail, Giant: 45
[14]; [27]
  Plant response rating, Velvetleaf: 65
[14]; scale 0 to 100
  Velvetleaf plant response rating: 55
[15]; [28]
  Velvetleaf plant response rating: 90
[15]; [29]
  Velvetleaf plant response rating: 100
[16]; [28]
  Wheat plant response rating: 50
[16]; [29]
  Wheat plant response rating: 80
